Earlier results, collected in patent publication US11526092B2, “Electrophotographic photoreceptor, process cartridge, and image forming apparatus” (FUJIFILM Business Innovation Corp., priority 2019, dated 2022).

Conditions: in water at 25° C.; first acid dissociation constant (pKa1)

Acidic compound pKa: −2
SMILES: CCCCCCCCCCCCc1ccc(S(=O)(=O)O)cc1 [DBS, dodecylbenzenesulfonic acid]
